Data reported in patent publication US7943770B2, “Fused quinoline derivative and use thereof” (Takeda Pharmaceutical Company Limited, priority 2004, dated 2011).

These compounds were tested against T1, hNK2 receptor (Homo sapiens, UniProt P21452) (assay: Radio-ligand ([125I]-NKA) receptor binding inhibitory activity using membrane fraction of hNK2 receptor-expressing CHO cell). Conditions: membrane fraction of hNK2 receptor-expressing CHO cells, 25° C., 30 min.
T1 construct: host or cells: CHO cells
T1 sequence (P21452 1-398): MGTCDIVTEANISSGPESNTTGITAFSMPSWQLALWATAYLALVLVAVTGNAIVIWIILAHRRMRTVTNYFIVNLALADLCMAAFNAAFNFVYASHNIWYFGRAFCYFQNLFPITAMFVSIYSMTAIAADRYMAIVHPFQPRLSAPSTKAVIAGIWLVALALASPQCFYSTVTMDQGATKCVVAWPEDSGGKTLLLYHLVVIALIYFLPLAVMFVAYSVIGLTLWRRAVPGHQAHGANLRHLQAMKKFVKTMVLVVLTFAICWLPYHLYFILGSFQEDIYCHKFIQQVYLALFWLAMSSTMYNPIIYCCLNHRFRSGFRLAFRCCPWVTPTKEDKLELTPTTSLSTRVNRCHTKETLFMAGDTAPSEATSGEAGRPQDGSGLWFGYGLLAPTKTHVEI
In short: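 Inhibition of [125I]-NKA binding ([…] solution added) measured after 30 min at 25 °C using hNK2-CHO membrane fraction (20 μg/mL suspension) in pH 7.4 Tris buffer containing MnCl2, BSA and protease inhibitors. Filter-bound counts read; activity calculated as fraction of specific binding, non-specific defined with unlabeled NKA.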

How did the IC50 turn out when `CCCCNC(=O)N[C@@H]1CCCC[C@@H]1C(=O)N1CC[C@@H]2[C@H](c3ncc[nH]3)Nc3ccccc3[C@@H]21` [Example 299, N-Butyl-N′-((1R,2S)-2-{[(3aR,4R,9bR)-4-(1H-imidazol-2-yl)-2,3,3a,4,5,9b-hexahydro-1H-pyrrolo[3,2-c]quinolin-1-yl]carbonyl}cyclohexyl)urea] was run?
The IC50 was under 1 nM.

`O=C(N[C@@H]1CCCC[C@@H]1C(=O)N1CC[C@@H]2[C@H](c3ncc[nH]3)Nc3ccccc3[C@@H]21)c1ccc(C(F)(F)F)cc1` [Example 296, N-((1R,2S)-2-{[(3aR,4R,9bR)-4-(1H-Imidazol-2-yl)-2,3,3a,4,5,9b-hexahydro-1H-pyrrolo[3,2-c]quinolin-1-yl]carbonyl}cyclohexyl)-4-(trifluoromethyl)benzamide] was tested. Which IC50 did it give?
Its IC50 is under 1 nM.

`NC(=O)c1ccc(C(=O)N[C@@H]2CCCC[C@@H]2C(=O)N2CC[C@@H]3[C@H](c4ccc[nH]4)Nc4ccccc4[C@@H]32)cc1` [Example 323, N-((1R,2S)-2-{[(3aR,4R,9bR)-4-(1H-Pyrrol-2-yl)-2,3,3a,4,5,9b-hexahydro-1H-pyrrolo[3,2-c]quinolin-1-yl]carbonyl}cyclohexyl)terephthalamide] was tested. Which IC50 did it give?
The IC50 was under 1 nM.

Which IC50 does the source give for `O=C(N[C@@H]1CCCC[C@@H]1C(=O)N1CC[C@@H]2[C@H](c3ccc[nH]3)Nc3ccccc3[C@@H]21)c1ccccc1` [Example 64, N-((1R,2S)-2-{[(3aR,4R,9bR)-4-(1H-Pyrrol-2-yl)-2,3,3a,4,5,9b-hexahydro-1H-pyrrolo[3,2-c]quinolin-1-yl]carbonyl}cyclohexyl)benzamide] here?
The IC50 was under 1 nM.

Which IC50 does the source give for `N#Cc1cccc(C(=O)N[C@@H]2CCCC[C@@H]2C(=O)N2CC[C@@H]3[C@H](c4ncc[nH]4)Nc4ccccc4[C@@H]32)c1` [Example 308, 3-Cyano-N-((1R,2S)-2-{[(3aR,4R,9bR)-4-(1H-imidazol-2-yl)-2,3,3a,4,5,9b-hexahydro-1H-pyrrolo[3,2-c]quinolin-1-yl]carbonyl}cyclohexyl)benzamide] here?
The IC50 was under 1 nM.

Which IC50 does the source give for `O=C(/C=C/c1c[nH]cn1)N[C@@H]1CCCC[C@@H]1C(=O)N1CC[C@@H]2[C@H](c3ccccc3)Nc3ccccc3[C@@H]21` [Example 128, (2E)-3-(1H-Imidazol-4-yl)-N-((1R,2S)-2-{[(3aR,4R,9bR)-4-phenyl-2,3,3a,4,5,9b-hexahydro-1H-pyrrolo[3,2-c]quinolin-1-yl]carbonyl}cyclohexyl)acrylamide] here?
Its IC50 is under 10 nM.

`CC(C)[C@@H]1Nc2ccccc2[C@H]2[C@@H]1CCN2C(=O)[C@H]1CCCC[C@H]1NC(=O)c1ccccc1` (relative stereo) [Example 28, N-((1R,2S)-2-[(3aR*,4S*, 9bR*)-4-Isopropyl-2,3,3a,4,5,9b-hexahydro-1H-pyrrolo[3,2-c]quinolin-1-yl]carbonyl)cyclohexyl)benzamide] was tested. Which IC50 did it give?
The IC50 was under 10 nM.

Which IC50 does the source give for `COC[C@@H]1Nc2ccccc2[C@H]2[C@@H]1CCN2C(=O)[C@H]1CCCC[C@H]1NC(=O)c1ccc(N(C)C)cc1` [Example 213, 4-(Dimethylamino)-N-((1R,2S)-2-{[(3aR,4R,9bR)-4-(methoxymethyl)-2,3,3a,4,5,9b-hexahydro-1H-pyrrolo[3,2-c]quinolin-1-yl]carbonyl}cyclohexyl)benzamide] here?
Its IC50 is under 1 nM.

For `Cc1cc(C(=O)N[C@@H]2CCCC[C@@H]2C(=O)N2CC[C@@H]3[C@H](c4ccsc4)Nc4ccccc4[C@@H]32)ccc1C(N)=O` [Example 191, 2-Methyl-N^4-((1R,2S)-2-{[(3aR,4R,9bR)-4-(3-thienyl)-2,3,3a,4,5,9b-hexahydro-1H-pyrrolo[3,2-c]quinolin-1-yl]carbonyl}cyclohexyl)terephthalamide], which IC50 is on record?
Its IC50 is under 1 nM.

How did the IC50 turn out when `CC(=O)N1CCC(NC(=O)N[C@@H]2CCCC[C@@H]2C(=O)N2CC[C@@H]3[C@H](c4ccccc4)Nc4ccccc4[C@@H]32)CC1` [Example 175, N-(1-Acetylpiperidin-4-yl)-N′-((1R,2S)-2-{[(3aR,4R,9bR)-4-phenyl-2,3,3a,4,5,9b-hexahydro-1H-pyrrolo[3,2-c]quinolin-1-yl]carbonyl}cyclohexyl)urea] was run?
The IC50 was under 10 nM.

For `COC[C@@H]1Nc2ccccc2[C@H]2[C@@H]1CCN2C(=O)[C@H]1CCCC[C@H]1NC(=O)c1ccccc1` (relative stereo) [Example 51, N-((1R,2S)-2-{[(3aR*,4R*,9bR*)-4-(Methoxymethyl)-2,3,3a,4,5,9b-hexahydro-1H-pyrrolo[3,2-c]quinolin-1-yl]carbonyl}cyclohexyl)benzamide], which IC50 is on record?
Its IC50 is under 10 nM.

With `CCNC(=O)N[C@@H]1CCCC[C@@H]1C(=O)N1CC[C@@H]2[C@H](c3ccccc3)Nc3ccccc3[C@@H]21` [Example 151, N-Ethyl-N′-((1R,2S)-2-{[(3aR,4R,9bR)-4-phenyl-2,3,3a,4,5,9b-hexahydro-1H-pyrrolo[3,2-c]quinolin-1-yl]carbonyl}cyclohexyl)urea] as the compound, how does the IC50 read?
The IC50 was under 10 nM.

How did the IC50 turn out when `COC[C@@H]1Nc2ccccc2[C@H]2[C@@H]1CCN2C(=O)[C@H]1CCCC[C@H]1NC(=O)c1ccc2[nH]c(C(F)(F)F)nc2c1` [Example 282, N-((1R,2S)-2-{[(3aR,4R,9bR)-4-(Methoxymethyl)-2,3,3a,4,5,9b-hexahydro-1H-pyrrolo[3,2-c]quinolin-1-yl]carbonyl}cyclohexyl)-2-(trifluoromethyl)-1H-benzimidazole-5-carboxamide] was run?
Its IC50 is under 10 nM.

With `O=C(N[C@@H]1CCCC[C@@H]1C(=O)N1CC[C@@H]2[C@H](c3ccccc3)Nc3c(F)cccc3[C@@H]21)c1ccccc1` (relative stereo) [Example 8, N-((1R,2S)-2-{[(3aR*,4R*,9bR*)-6-Fluoro-4-phenyl-2,3,3a,4,5,9b-hexahydro-1H-pyrrolo[3,2-c]quinolin-1-yl]carbonyl}cyclohexyl)benzamide] as the compound, how does the IC50 read?
Its IC50 is under 10 nM.

For `COC[C@@H]1Nc2ccccc2[C@H]2[C@@H]1CCN2C(=O)[C@H]1CCCC[C@H]1NC(=O)Nc1ccc(OC)cc1` [Example 206, N-((1R,2S)-2-{[(3aR,4R,9bR)-4-(Methoxymethyl)-2,3,3a,4,5,9b-hexahydro-1H-pyrrolo[3,2-c]quinolin-1-yl]carbonyl}cyclohexyl)-N′-(4-methoxyphenyl)urea], which IC50 is on record?
Its IC50 is under 1 nM.

For `COCCN(C)c1ccc(C(=O)N[C@@H]2CCCC[C@@H]2C(=O)N2CC[C@@H]3[C@H](COC)Nc4ccccc4[C@@H]32)cc1` [Example 273, 4-[(2-Methoxyethyl)(methyl)amino]-N-((1R,2S)-2-{[(3aR,4R,9bR)-4-(methoxymethyl)-2,3,3a,4,5,9b-hexahydro-1H-pyrrolo[3,2-c]quinolin-1-yl]carbonyl}cyclohexyl)benzamide], which IC50 is on record?
The IC50 was under 1 nM.

`O=C(Nc1ccc(F)cc1)N[C@@H]1CCCC[C@@H]1C(=O)N1CC[C@@H]2[C@H](c3ccccc3)Nc3ccccc3[C@@H]21` [Example 139, N-(4-Fluorophenyl)-N′-((1R,2S)-2-{[(3aR,4R,9bR)-4-phenyl-2,3,3a,4,5,9b-hexahydro-1H-pyrrolo[3,2-c]quinolin-1-yl]carbonyl}cyclohexyl)urea] was tested. Which IC50 did it give?
The IC50 was under 1 nM.

How did the IC50 turn out when `COC[C@@H]1Nc2ccccc2[C@H]2[C@@H]1CCN2C(=O)[C@H]1CCCC[C@H]1NC(=O)c1ccc2ncsc2c1` [Example 253, N-((1R,2S)-2-{[(3aR,4R,9bR)-4-(Methoxymethyl)-2,3,3a,4,5,9b-hexahydro-1H-pyrrolo[3,2-c]quinolin-1-yl]carbonyl}cyclohexyl)-1,3-benzothiazole-6-carboxamide] was run?
The IC50 was under 10 nM.

`O=C(N[C@@H]1CCCC[C@@H]1C(=O)N1CC[C@@H]2[C@H](c3ncc[nH]3)Nc3ccccc3[C@@H]21)c1ccccc1` [Example 81, N-((1R,2S)-2-{[(3aR,4R,9bR)-4-(1H-imidazol-2-yl)-2,3,3a,4,5,9b-hexahydro-1H-pyrrolo[3,2-c]quinolin-1-yl]carbonyl}cyclohexyl)benzamide] was tested. Which IC50 did it give?
The IC50 was under 1 nM.
